Patent US12360111B2, “G protein-coupled receptor screening systems” (The University of North Carolina at Chapel Hill, priority 2018, dated 2025)
Entries after “also recorded” stand apart in the source; their conditions may differ. Like-named read-outs stand apart in the source and are kept apart here.

Experiments:
HEK293 cells = assay: Calcium release in HEK293 cells without serotonin receptors; assay type: cell-based; settings: cells do not express serotonin (5-HT) receptors
[1] = tested on: 5-HT5A receptor fused to Gi, Gq or Gs; assay: [35S]GTPγS loading at 5-HT5A receptor-Gα fusions; assay type: biochemical; settings: Gi vs Gq vs Gs fusions
[2] = tested on: serotonin-5A receptor (HTR5A)-Gαi1 RLuc fusion; assay: Fusion BRET at HTR5A-Gαi1 RLuc; assay type: cell-based
[3] = tested on: mu-opioid receptor fused to Gαi1-RLuc8 chimera (MOR-Gi1RLuc); settings: for binding to and GPPNHP elution from membranes (in words): unfused MOR vs MOR-Gαi1 membranes
[4] = tested on: Gα proteins fused to the μ-opioid receptor (MOR); assay: Competition radioligand binding at six Gα proteins fused to MOR
[5] = target: T1, KOR, Gαi/o-class TRUPATH sensors (Homo sapiens, UniProt P41145); assay type: cell-based
T1 construct: expressed in transfected cells

[6] = target: T2, mu-opioid receptor unfused (MOR) (Homo sapiens, UniProt P35372); assay type: binding
T2 construct: expressed in transfected cells

[7] = target: T3, μ-opioid receptor (MOR) fused to Gαi1 protein (MOR-Gi1) (Homo sapiens, UniProt P35372+P63096); assay: ADSoRB screen with radiolabeled agonist tracer at MOR-Gi1 microsomes; assay type: binding
T3 construct: expressed in transfected cells; host or cells: HEK293 suspension cells, microsomal membranes

μ-opioid receptor (MOR) = target: T4, μ-opioid receptor (MOR) (Homo sapiens, UniProt P35372); assay: TRUPATH after alkylation of MOR with β-FNA (receptor reserve); assay type: cell-based; settings: increasing β-FNA treatment
T4 construct: expressed in transfected cells
T4 sequence (P35372 whole entry): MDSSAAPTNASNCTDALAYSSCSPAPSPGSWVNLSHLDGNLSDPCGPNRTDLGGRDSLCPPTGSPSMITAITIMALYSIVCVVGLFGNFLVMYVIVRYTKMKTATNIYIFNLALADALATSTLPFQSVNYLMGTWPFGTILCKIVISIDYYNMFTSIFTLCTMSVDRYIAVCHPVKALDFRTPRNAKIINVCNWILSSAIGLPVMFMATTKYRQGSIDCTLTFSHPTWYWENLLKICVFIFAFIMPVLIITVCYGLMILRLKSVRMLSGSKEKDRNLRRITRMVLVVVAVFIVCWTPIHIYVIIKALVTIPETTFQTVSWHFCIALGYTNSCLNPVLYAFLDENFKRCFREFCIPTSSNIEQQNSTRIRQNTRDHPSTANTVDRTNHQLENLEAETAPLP

T1 sequence (P41145 whole entry): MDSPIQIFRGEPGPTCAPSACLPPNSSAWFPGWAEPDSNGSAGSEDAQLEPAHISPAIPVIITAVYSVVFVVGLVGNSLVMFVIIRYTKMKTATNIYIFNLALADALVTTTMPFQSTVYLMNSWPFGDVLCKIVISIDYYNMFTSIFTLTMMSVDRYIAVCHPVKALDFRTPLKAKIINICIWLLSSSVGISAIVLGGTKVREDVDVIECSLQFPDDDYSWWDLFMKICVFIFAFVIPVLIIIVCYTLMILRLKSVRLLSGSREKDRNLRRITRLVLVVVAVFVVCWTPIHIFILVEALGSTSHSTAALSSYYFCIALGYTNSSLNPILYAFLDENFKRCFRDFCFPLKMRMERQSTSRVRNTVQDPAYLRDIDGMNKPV
T2 sequence (P35372 whole entry, the tested form may be a part): as the sequence (P35372 whole entry) above
T3 sequence (P35372+P63096 fused): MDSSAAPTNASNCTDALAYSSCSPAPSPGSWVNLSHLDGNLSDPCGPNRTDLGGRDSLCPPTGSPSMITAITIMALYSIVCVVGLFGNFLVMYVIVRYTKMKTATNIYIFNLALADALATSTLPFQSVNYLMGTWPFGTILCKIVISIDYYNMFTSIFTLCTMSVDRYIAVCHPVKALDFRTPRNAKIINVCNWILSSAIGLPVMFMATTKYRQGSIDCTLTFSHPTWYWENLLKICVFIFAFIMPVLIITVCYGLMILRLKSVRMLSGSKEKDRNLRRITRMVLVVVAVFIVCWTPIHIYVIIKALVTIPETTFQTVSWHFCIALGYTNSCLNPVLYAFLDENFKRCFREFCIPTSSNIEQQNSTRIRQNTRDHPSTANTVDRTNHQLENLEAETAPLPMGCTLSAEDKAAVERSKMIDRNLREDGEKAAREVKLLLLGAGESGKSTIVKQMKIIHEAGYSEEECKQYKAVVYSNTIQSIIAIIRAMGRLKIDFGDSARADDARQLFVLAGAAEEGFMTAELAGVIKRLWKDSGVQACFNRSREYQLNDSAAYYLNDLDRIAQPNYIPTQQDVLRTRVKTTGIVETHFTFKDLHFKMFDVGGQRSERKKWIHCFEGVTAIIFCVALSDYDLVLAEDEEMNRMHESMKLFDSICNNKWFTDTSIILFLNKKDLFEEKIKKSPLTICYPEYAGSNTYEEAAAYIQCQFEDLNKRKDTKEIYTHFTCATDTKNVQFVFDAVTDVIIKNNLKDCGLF

## NCCc1c[nH]c2ccc(O)cc12 [5-HT]
HEK293 cells
  calcium release (in words): do not cause calcium release
[1]
  G protein activation ([35S]GTPγS loading, in words): only seen at the Gi fusion
[2]
  BRET response (in words): reliable and substantial serotonin response

## C[C@@H](NC(=O)[C@@H](N)Cc1ccc(O)cc1)C(=O)NCC(=O)N(C)[C@@H](Cc1ccccc1)C(=O)NCCO [DAMGO]
[3]
  binding to and GPPNHP elution from membranes (in words): ability to bind and elute
[4]
  affinity shift vs unfused MOR (in words): shift compared to unfused MOR

## COc1cc(CC(C)N)c(OC)cc1I (centres unmarked) [DOI]
HEK293 cells
  calcium release (in words): do not cause calcium release

## COC(=O)N1CCN(C(=O)Cc2ccc(Cl)c(Cl)c2)C(CN2CCCC2)C1 (centres unmarked) [GR89,696]
[5]
  efficacy across transducers (in words): activated all transducers with equal efficacy

## CCN(CC)C(=O)N[C@H]1C=C2c3cccc4[nH]cc(c34)C[C@H]2N(C)C1 [Lisuride]
HEK293 cells
  calcium release (in words): do not cause calcium release

## O=C(c1ccccn1)N(Cc1cccs1)C1(C(=O)NC2CCCCC2)CCCCC1 [ML139]
[5]
  efficacy across transducers (in words): activated all transducers with equal efficacy

## COc1ccsc1CNCC[C@@]1(c2ccccn2)CCOC2(CCCC2)C1 [TRV130]
[4]
  affinity shift vs unfused MOR (in words): shift compared to unfused MOR

## C[C@@H](NC(=O)[C@@H](N)Cc1ccc(O)cc1)C(=O)NCC(=O)N(C)[C@@H](Cc1ccccc1)C(=O)NCCO [[3H]DAMGO]
[3]; MOR-Gi1RLuc complex
  unbound tracer: 23%
[3]; high affinity MOR-Gi1RLuc complex
  elution upon complex dissociation with GPPNHP: 7 % of total
[3]; listed as [^3H]DAMGO
  binding to and GPPNHP elution from membranes (in words): binds more strongly to the MOR-Gαi1 complex; also recorded: elutes to a greater extent
[6]
  elution upon complex dissociation with GPPNHP: 0.8 % of total
  unbound tracer: 67%
[7]; GPPNHP elution
  elution upon complex dissociation/uncoupling with GPPNHP: 30 % of total agonist added
[7]; buffer elution
  elution with buffer control: 2 % of total agonist added

## COC(=O)/C=C/C(=O)N[C@@H]1CC[C@@]2(O)[C@H]3Cc4ccc(O)c5c4[C@@]2(CCN3CC2CC2)[C@H]1O5 [β-FNA]
μ-opioid receptor (MOR)
  effect on maximal efficacy (Emax): strong inhibition of maximal efficacy
  effect on potency: minimal effect on potency

## Leu-enkephalin
[4]
  affinity shift vs unfused MOR (in words): shift compared to unfused MOR
